Legend:
Format in all cases: in vivo
[1] = tested on: Phytophthora infestans; assay: whole plant or invertebrate; conditions: tomato late blight, spray 17 h after inoculation
[2] = tested on: Erysiphe graminis f. sp. tritici; assay: Test E: wheat powdery mildew, spray the day before inoculation (disease rating, 100 = 100% disease control); conditions: spray the day before inoculation
How it was run: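 Wheat seedlings sprayed to run-off with compound suspended in acetone/water 50/50 with 250 ppm Trem 014 (200 ppm equivalent to 500 g/ha); inoculated next day with Erysiphe graminis f. sp. tritici spore dust. Kept 7 days at 20° C, then rated 0–100% disease control versus controls.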

[3] = tested on: Phytophthora infestans; assay: whole plant or invertebrate; conditions: tomato late blight, spray the day before inoculation
[4] = tested on: Plasmopara viticola; assay: Test B: grape downy mildew, spray 24 h after inoculation (disease rating, 100 = 100% disease control); conditions: spray 24 h after inoculation
How it was run: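 Grape seedlings were inoculated with Plasmopara viticola and held 24 h saturated at 20 °C, then sprayed to run-off with compound suspension (acetone/water with 250 ppm Trem 014; 200 ppm ≈ 500 g/ha). After 5 days at 20 °C and 24 h saturation, disease was rated from 0 to 100% control versus untreated.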

[5] = compounds without asterisk (not 40 or 10 ppm)

Compound	Test D disease rating (100 = 100% disease control, 0 = no disease control) ([1]; tested at 10 ppm) [%]	Test E disease rating (100 = 100% disease control, 0 = no disease control) ([2]; tested at 10 ppm) [%]	Test C disease rating (100 = 100% disease control, 0 = no disease control) ([3]; tested at 10 ppm) [%]	Test B disease rating (100 = 100% disease control, 0 = no disease control) ([4]; tested at 10 ppm) [%]	further results
Cc1cc(C(F)(F)F)nn1CC(=O)N1CCC(c2nc(C(=O)N(C)C3CCOc4ccccc43)cs2)CC1 (centres unmarked) [compound 179]	87	0	100	96	
Cc1cc(C(F)(F)F)nn1CC(=O)N1CCC(c2nc(C(=O)N(C)C3CCSc4ccccc43)cs2)CC1 (centres unmarked) [compound 180]	92	0	100	47	
Cc1cc(C(F)(F)F)nn1CC(=O)N1CCC(c2nc(C(=O)N(C)C3CCCCc4ccccc43)cs2)CC1 (centres unmarked) [compound 181]	98	0	100	73	
Cc1cc(C(F)(F)F)nn1CC(=O)N1CCC(c2nc(C(=O)N(C)C3CCCc4sccc43)cs2)CC1 (centres unmarked) [compound 182]					Test D disease rating (100 = 100% disease control, 0 = no disease control) ([1]; tested at 40 ppm): 98%; Test E disease rating (100 = 100% disease control, 0 = no disease control) ([2]; tested at 40 ppm): 0%; Test C disease rating (100 = 100% disease control, 0 = no disease control) ([3]; tested at 40 ppm): 100%; Test B disease rating (100 = 100% disease control, 0 = no disease control) ([4]; tested at 40 ppm): 99%
Cc1cc(C(F)(F)F)nn1CC(=O)N1CCC(c2nc(C(=O)N(C)C3CCCc4occc43)cs2)CC1 (centres unmarked) [compound 183]	16	0	40	0	
Cc1cc(C(F)(F)F)nn1CC(=O)N1CCC(c2nc(C(=O)N(C)C3COc4ccccc43)cs2)CC1 (centres unmarked) [compound 184]	76	0	99	77	
Cc1cc(C(F)(F)F)nn1CC(=O)N1CCC(c2nc(C(=O)N(C)C3CSCc4ccccc43)cs2)CC1 (centres unmarked) [compound 185]	98	0	100	99	
Cc1cc(C(F)(F)F)nn1CC(=O)N1CCC(c2nc(C(=O)N(C)C3CCCCC3c3ccccc3)cs2)CC1 (centres unmarked) [compound 186]	58	0	97	0	
Cc1cc(C(F)(F)F)nn1CC(=O)N1CCC(c2nc(C(=O)N(C)C3CCCc4c(O)cccc43)cs2)CC1 (centres unmarked) [compound 189]					Test D disease rating (100 = 100% disease control, 0 = no disease control) [1, 5]: 99%; Test E disease rating (100 = 100% disease control, 0 = no disease control) [2, 5]: 0%; Test C disease rating (100 = 100% disease control, 0 = no disease control) [3, 5]: 100%; Test B disease rating (100 = 100% disease control, 0 = no disease control) [4, 5]: 93%
Cc1cc(C(F)(F)F)nn1CC(=O)N1CCC(c2nc(C(=O)N(C)C3c4ccccc4CCC3O)cs2)CC1 (centres unmarked) [compound 194]					Test D disease rating (100 = 100% disease control, 0 = no disease control) ([1]; tested at 40 ppm): 74%; Test E disease rating (100 = 100% disease control, 0 = no disease control) ([2]; tested at 40 ppm): 0%; Test C disease rating (100 = 100% disease control, 0 = no disease control) ([3]; tested at 40 ppm): 98%; Test B disease rating (100 = 100% disease control, 0 = no disease control) ([4]; tested at 40 ppm): 0%
CC(=O)OC1CCc2ccccc2C1N(C)C(=O)c1csc(C2CCN(C(=O)Cn3nc(C(F)(F)F)cc3C)CC2)n1 (centres unmarked) [compound 195]					Test D disease rating (100 = 100% disease control, 0 = no disease control) [1, 5]: 88%; Test E disease rating (100 = 100% disease control, 0 = no disease control) [2, 5]: 0%; Test C disease rating (100 = 100% disease control, 0 = no disease control) [3, 5]: 99%; Test B disease rating (100 = 100% disease control, 0 = no disease control) [4, 5]: 47%
